# In ChEMBL document CHEMBL1152907, “Synthesis and cytotoxicities of icogenin analogues with disaccharide residues” (Bioorg Med Chem Lett, 2009):
# Experiments:
# Format in all cases: functional, cell-based
# [1] = tested on: SW1990; experiment: Cytotoxicity against human SW1990 cells after 72 hrs by MTT assay; settings: SW1990, 72 h
# [2] = tested on: BXPC-3; experiment: Cytotoxicity against human BxPC3 cells after 72 hrs by MTT assay; settings: BXPC-3, 72 h
# [3] = tested on: Capan-2; experiment: Cytotoxicity against human Capan2 cells after 72 hrs by MTT assay; settings: Capan-2, 72 h
# [4] = tested on: PANC-1; experiment: Cytotoxicity against human PANC1 cells after 72 hrs by MTT assay; settings: PANC-1, 72 h
# [5] = tested on: A549; experiment: Cytotoxicity against human A549 cells after 72 hrs by MTT assay; settings: A549, 72 h
# [6] = tested on: Bel-7402; experiment: Cytotoxicity against human Bel7402 cells after 72 hrs by MTT assay; settings: Bel-7402, 72 h
# [7] = tested on: A2780; experiment: Cytotoxicity against human A2780 cells after 72 hrs by MTT assay; settings: A2780, 72 h
# [8] = tested on: HCT-8; experiment: Cytotoxicity against human HCT8 cells after 72 hrs by MTT assay; settings: HCT-8, 72 h
# [9] = tested on: MCF7; experiment: Cytotoxicity against human MCF7 cells after 72 hrs by MTT assay; settings: MCF7, 72 h
# [10] = tested on: HL-60; experiment: Cytotoxicity against human HL60 cells after 72 hrs; settings: HL-60, 72 h
Structure (SMILES),IC50 [1] [µM],IC50 [2] [µM],IC50 [3] [µM],IC50 [4] [µM],IC50 [5] [µM],IC50 [6] [µM],IC50 [7] [µM],IC50 [8] [µM],IC50 [9] [µM],IC50 [10] [µM]
CO[C@]1(CC[C@@H](C)CO)O[C@H]2C[C@H]3[C@@H]4CC=C5C[C@@H](O[C@H]6O[C@H](CO)[C@@H](O)[C@H](O[C@@H]7O[C@H](CO)[C@@H](O)[C@H](O)[C@H]7O)[C@H]6O[C@@H]6O[C@@H](C)[C@H](O)[C@@H](O)[C@H]6O)CC[C@]5(C)[C@H]4CC[C@]3(C)[C@H]2[C@@H]1C,0.9,1,1.1,0.82,0.89,0.92,7.1,1.3,1.2,–
CO[C@]1(CC[C@@H](C)CO)O[C@H]2C[C@H]3[C@@H]4CC=C5C[C@@H](O[C@@H]6O[C@H](CO)[C@@H](O)[C@H](O)[C@H]6O[C@@H]6O[C@@H](C)[C@H](O)[C@@H](O)[C@H]6O)CC[C@]5(C)[C@H]4CC[C@]3(C)[C@H]2[C@@H]1C,0.66,1.01,1.07,0.83,1.08,0.9,7.2,1.02,2.89,–
CO[C@]1(CC[C@@H](C)CO)O[C@H]2C[C@H]3[C@@H]4CC=C5C[C@@H](O[C@H]6O[C@H](CO)[C@@H](O)[C@H](O)[C@H]6O[C@@H]6O[C@@H](C)[C@H](O)[C@@H](O)[C@H]6O)CC[C@]5(C)[C@H]4CC[C@]3(C)[C@H]2[C@@H]1C,0.73,1.04,1.36,0.87,1.48,0.94,7.8,1.26,2.65,–
C[C@@H]1CC[C@@]2(OC1)O[C@H]1C[C@H]3[C@@H]4CC=C5C[C@@H](O[C@H]6O[C@H](CO)[C@@H](O)[C@H](O)[C@H]6O[C@@H]6O[C@@H](C)[C@H](O)[C@@H](O)[C@H]6O)CC[C@]5(C)[C@H]4CC[C@]3(C)[C@H]1[C@@H]2C,> 10,> 10,> 10,> 10,> 10,> 10,> 10,> 10,> 10,–
C[C@@H]1CC[C@@]2(OC1)O[C@H]1C[C@H]3[C@@H]4CC=C5C[C@@H](O[C@@H]6O[C@H](CO)[C@@H](O[C@@H]7O[C@@H](C)[C@H](O)[C@@H](O)[C@H]7O)[C@H](O)[C@H]6O[C@@H]6O[C@@H](C)[C@H](O)[C@@H](O)[C@H]6O)CC[C@]5(C)[C@H]4CC[C@]3(C)[C@H]1[C@@H]2C [DIOSCIN],0.5,0.7,0.05,0.81,0.7,0.23,4.46,0.56,1.03,–
Nc1ccn([C@@H]2O[C@H](CO)[C@@H](O)C2(F)F)c(=O)n1 [GEMCITABINE],1.2,2.9,1.7,5.6,1.4,0.84,0.31,1.74,3.28,–
C[C@@H]1CC[C@@]2(OC1)O[C@H]1C[C@H]3[C@@H]4CC=C5C[C@@H](O[C@@H]6O[C@H](CO)[C@@H](O)[C@H](O[C@@H]7O[C@H](CO)[C@@H](O)[C@H](O)[C@H]7O)[C@H]6O[C@@H]6O[C@@H](C)[C@H](O)[C@@H](O)[C@H]6O)CC[C@]5(C)[C@H]4CC[C@]3(C)[C@H]1[C@@H]2C [GRACILLIN],1.1,1.3,1.3,0.7,0.96,1.1,4.3,0.92,17.5,–
CO[C@]1(CC[C@@H](C)CO)O[C@H]2C[C@H]3[C@@H]4CC=C5C[C@@H](O[C@@H]6O[C@H](CO)[C@@H](O)[C@H](O[C@@H]7O[C@H](CO)[C@@H](O)[C@H](O)[C@H]7O)[C@H]6O[C@@H]6O[C@@H](C)[C@H](O)[C@@H](O)[C@H]6O)CC[C@]5(C)[C@H]4CC[C@]3(C)[C@H]2[C@@H]1C [ICOGENIN(BETA)],1,1.1,1.1,0.84,1.86,0.86,0.92,0.93,1.07,2.6
C[C@@H]1CC[C@@]2(OC1)O[C@H]1C[C@H]3[C@@H]4CC=C5C[C@@H](O[C@@H]6O[C@H](CO)[C@@H](O)[C@H](O[C@@H]7O[C@@H](C)[C@H](O)[C@@H](O)[C@H]7O)[C@H]6O)CC[C@]5(C)[C@H]4CC[C@]3(C)[C@H]1[C@@H]2C [POLYPHILLIN C],5.4,> 10,2.7,11.8,2.3,> 10,> 10,4.16,3.45,–
